Read-outs that look alike come from different tables or passages of the source.
Tests used:
MV-AII-5 = assay: Dose-response CPE assay against AS-136A-adapted MV variant; settings: read-out: EC50 (MV-AII-5); MV-Alaska variant adapted to grow in presence of RdRp inhibitor AS-136A; highest concentration assessed 37.5 μM
CDV-752 = assay: Dose-response CPE assay, Vero-dogSLAM cells; assay type: cell-based, canine distemper virus; settings: for EC50: read-out: EC50 (CDV-752)
HPIV3 = assay: Dose-response CPE assay, Vero cells; assay type: cell-based, human parainfluenzavirus type 3; settings: for EC50: read-out: EC50 (HPIV3)
cells = assay: Quantitative cytotoxicity assay; assay type: cell-based; settings: for CC50: 24 h, absence of virus, highest concentration assessed 150 μM, averages of two experiments; for SI (CC50/EC50): specificity index, CC50 / EC50 against MV-Alaska
MV-Ibd = assay: Dose-response CPE assay against AS-48-resistant MV strain; settings: for EC50 (MV-Ibd): strain naturally resistant to MV fusion inhibitor AS-48, highest concentration assessed 37.5 μM
[1] = target: MV H and F envelope glycoproteins (Measles virus, UniProt P08362+P69353); assay: cell-based
[2] = Quantitative cytotoxicity assay; assay type: cell-based
MV-Alaska = assay: Dose-response curves based on suppression of viral CPE; assay type: cell-based, measles virus; settings: Measles morbillivirus, 96 h, read-out: EC50 (MV-Alaska)
[3] = Vero-dogSLAM cells, highest concentration assessed 37.5 μM
[4] = Vero cells, highest concentration assessed 37.5 μM

Sequence of MV H and F envelope glycoproteins (P08362 whole entry): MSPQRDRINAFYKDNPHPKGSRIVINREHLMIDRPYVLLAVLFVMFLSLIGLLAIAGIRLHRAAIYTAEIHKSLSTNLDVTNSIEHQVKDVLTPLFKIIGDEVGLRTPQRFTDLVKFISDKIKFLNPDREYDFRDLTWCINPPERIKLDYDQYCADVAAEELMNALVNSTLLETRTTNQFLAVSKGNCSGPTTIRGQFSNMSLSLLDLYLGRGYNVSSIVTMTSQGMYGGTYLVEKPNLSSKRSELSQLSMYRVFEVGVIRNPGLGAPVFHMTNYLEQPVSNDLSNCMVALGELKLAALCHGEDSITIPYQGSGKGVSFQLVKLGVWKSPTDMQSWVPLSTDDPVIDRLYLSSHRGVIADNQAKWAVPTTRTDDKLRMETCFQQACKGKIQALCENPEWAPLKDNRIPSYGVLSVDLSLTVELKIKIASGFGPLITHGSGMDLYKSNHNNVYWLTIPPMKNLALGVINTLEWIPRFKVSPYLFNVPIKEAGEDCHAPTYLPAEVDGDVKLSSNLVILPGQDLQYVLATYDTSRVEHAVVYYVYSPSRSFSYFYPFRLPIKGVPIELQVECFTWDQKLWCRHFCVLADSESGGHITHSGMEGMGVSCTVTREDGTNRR
Sequence of MV H and F envelope glycoproteins (P69353 113-550): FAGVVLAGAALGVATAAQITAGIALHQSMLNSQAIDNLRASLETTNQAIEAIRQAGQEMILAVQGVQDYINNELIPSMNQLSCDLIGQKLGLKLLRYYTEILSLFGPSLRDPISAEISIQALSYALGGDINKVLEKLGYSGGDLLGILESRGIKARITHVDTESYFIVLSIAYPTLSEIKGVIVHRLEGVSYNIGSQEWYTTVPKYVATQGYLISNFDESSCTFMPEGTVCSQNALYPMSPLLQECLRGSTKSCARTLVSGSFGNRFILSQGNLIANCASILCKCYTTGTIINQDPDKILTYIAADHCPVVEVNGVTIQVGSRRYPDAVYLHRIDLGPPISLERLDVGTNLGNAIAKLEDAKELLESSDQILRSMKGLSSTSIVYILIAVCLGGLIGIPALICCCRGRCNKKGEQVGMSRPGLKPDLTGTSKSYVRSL
Sequence of MV H and F envelope glycoproteins (P69353 24-112): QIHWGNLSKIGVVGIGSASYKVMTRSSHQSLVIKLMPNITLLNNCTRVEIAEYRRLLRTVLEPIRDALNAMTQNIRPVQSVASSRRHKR

SMILES	EC50 (MV-AII-5) [µM]	EC50 (CDV-752) (CDV-752; [3])	EC50 (HPIV3) (HPIV3; [4])	CC50 (cells) [µM]	SI (CC50/EC50) (cells)	EC50 (CDV-752; [3]) [µM]	EC50 (MV-Ibd) (MV-Ibd)	further results
Cn1c(C(=O)NCc2ccccc2)cc2oc3ccccc3c21 [compound 14735307]	5.4 ± 1.6	no activity detected	no activity detected	> 150	–	–	–	–
O=C(Cc1cccs1)Nc1nc2c(s1)CCCC2 [compound 4256670]	–	–	–	–	–	–	–	EC50 (CDV-752; canine distemper virus): 3.9 ± 0.2 µM; EC50 (HPIV3; Human respirovirus 3, Vero, in Homo sapiens): 5.8 ± 0.6 µM; EC50 (MV-Ibd; Measles morbillivirus, read-out: EC50 (MV-Ibd)): 26.6 ± 9.3 µM; EC50 [1]: 22 µM; Suppression of reporter expression ([1]; at 5 μM): did not suppress reporter expression at all; CC50 at 24 h [2]: ~150 µM; selectivity ratio [2]: 68; EC50 (MV-Alaska): 2.2 ± 0.3 µM
O=C(/C=C/c1cccs1)Nc1cccc(NC(=O)/C=C/c2cccs2)n1 [compound 17433375]	3.2 ± 0.1	no activity detected	no activity detected	70	19	–	–	–
COc1ccc([N+](=O)[O-])cc1NC(=O)CCc1ccccc1 [compound 17416393]	2.9 ± 0.5	–	no activity detected	> 150	>100	12.9 ± 0.7	no activity detected	–
CC(=O)Nc1ccc(-c2csc(NC(=O)CCCc3cccs3)n2)cc1 [compound 22408576]	2 ± 0.1	no activity detected	no activity detected	> 150	>65	–	–	–
CCN=c1scc(-c2ccccc2)n1/N=C/c1ccccn1 [compound 22406746]	–	–	–	~150	37	2.3 ± 0.2	–	EC50 (HPIV3; [4]): 2 ± 0.1 µM
CSc1nnc2c3ccccc3n(CCc3ccccc3)c2n1 [compound 7976354]	1 ± 0.1	–	–	> 150	>33	0.9 ± 0.1	–	EC50 (HPIV3; [4]): 3.5 ± 0.1 µM
CSc1cccc(NC(=O)Cn2cccc2)c1 [compound 4245209]	14.3 ± 0.8	–	no activity detected	–	–	31.1	no activity detected	–
CS(=O)(=O)N1CCc2cc(-c3csc(NC(=O)Cc4cccs4)n3)ccc21 [compound 846635]	3.7 ± 0.1	no activity detected	no activity detected	~150	56	–	no activity detected	–
CC(=O)Nc1ccc(Nc2cc(C)nc3c(-c4ccccc4)cnn23)cc1 [compound 17505573]	1.6 ± 0.1	no activity detected	no activity detected	54	14	–	no activity detected	–
CC(=O)Nc1ccc(-c2csc(NC(=O)C3CCN(S(=O)(=O)c4cccs4)CC3)n2)cc1 [compound 22410899]	3.8 ± 0.3	no activity detected	no activity detected	> 150	>39	–	–	–
O=C(Cc1cccs1)Nc1cc(SCCO)cc([N+](=O)[O-])c1 [compound 22402685]	1.6 ± 0.2	–	no activity detected	> 150	>79	2.1 ± 0.3	no activity detected	–
Cc1cccc(-n2c(SCC(=O)Nc3ncc(Cl)cc3Cl)nc3ccccc32)c1 [compound 22404943]	0.5 ± 0.1	–	–	> 150	>214	0.4 ± 0.1	–	EC50 (HPIV3; [4]): 0.6 ± 0.1 µM
Cc1ccc2[nH]c(=O)c(N3CCOCC3)c(-c3ccccc3)c2c1 [compound 4259333]	4.3 ± 0.3	no activity detected	no activity detected	118	36	–	–	–
Cc1cccc2c(=O)cc(C)n(Cc3ccccc3)c12 [compound 22415156]	2.4 ± 0.2	–	no activity detected	> 150	>42	11 ± 0.1	–	–
